This note sets out measurements from PubChem BioAssay (NCI).

Among the test systems are MOLT-4 leukemia; U251 CNS; NCI-H522 lung; CAKI-1 renal; SNB-19 CNS; A549 NSCLC; SK-MEL-5 melanoma; SF-295 CNS; HOP-92 NSCLC; MALME-3M melanoma.
Holding throughout (experiment): NCI tumour cell line growth inhibition, 48 h

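Cultured in 96-well plates, cells were exposed to test compound for 48 hours across five concentrations. GI50 marks 50% less growth. The concentration for full growth arrest is given as TGI.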

With `O=C1CC(c2ccccc2)=Nc2ccccc2N1`, the TGI in the assay on MOLT-4 leukemia, with U251 CNS, with NCI-H522 lung, with CAKI-1 renal, with SNB-19 CNS and in the assay with A549 NSCLC was > 100 µM in each case. In addition, the TGI in the assay with SK-MEL-5 melanoma, in the assay on SF-295 CNS, with HOP-92 NSCLC and with MALME-3M melanoma was > 100 µM throughout.
Regarding `CC(C)=CCc1[nH]c2ccccc2c1C1=C(O)C(=O)C(c2c(CC=C(C)C)[nH]c3ccccc23)=C(O)C1=O`, the TGI in the assay on MOLT-4 leukemia turned out to be 15.4 µM; with U251 CNS, 6.52 µM; in the assay with NCI-H522 lung, 5.58 µM; in the assay on CAKI-1 renal, 6.26 µM; in the assay with SNB-19 CNS, 16.4 µM; in the assay with A549 NSCLC, 11.2 µM. The TGI with SK-MEL-5 melanoma was found to be 4.12 µM; in the assay with SF-295 CNS, 6.5 µM; with HOP-92 NSCLC it was 4.04 µM; with MALME-3M melanoma, 4.5 µM.
For `CC(=O)Oc1c(-c2ccccc2)sc2ccccc12`, the TGI in the assay with MOLT-4 leukemia was 40.7 µM; in the assay with U251 CNS, 39.8 µM; with NCI-H522 lung, 51.3 µM; with CAKI-1 renal it was 22.8 µM; in the assay with SNB-19 CNS, > 100 µM; in the assay with A549 NSCLC, 37.9 µM. Further, the TGI in the assay with SK-MEL-5 melanoma is 44.5 µM; in the assay on SF-295 CNS, 40.3 µM; in the assay on HOP-92 NSCLC, 49.8 µM; in the assay with MALME-3M melanoma, 37.2 µM.
As for `O=C(N/N=C\c1ccc(N(CCCl)CCCl)cc1[N+](=O)[O-])c1cccnc1`, the GI50 in the assay on MOLT-4 leukemia, with U251 CNS, with NCI-H522 lung, with CAKI-1 renal, in the assay with SNB-19 CNS and in the assay with A549 NSCLC was > 100 µM each time. Moreover, the GI50 with SK-MEL-5 melanoma, with SF-295 CNS, in the assay with HOP-92 NSCLC and in the assay with MALME-3M melanoma was > 100 µM throughout. Moreover, the TGI in the assay with MOLT-4 leukemia, with U251 CNS, in the assay with NCI-H522 lung, in the assay on CAKI-1 renal, in the assay on SNB-19 CNS and in the assay on A549 NSCLC was > 100 µM in each case. In addition, the TGI in the assay on SK-MEL-5 melanoma, with SF-295 CNS, with HOP-92 NSCLC and in the assay on MALME-3M melanoma was > 100 µM throughout.
In the case of `O=C(O)c1cnc(-n2[nH]c3c(c2=O)CCCC3)[nH]c1=O`, the TGI with MOLT-4 leukemia, in the assay on U251 CNS, with NCI-H522 lung, with CAKI-1 renal, in the assay on SNB-19 CNS and in the assay on A549 NSCLC was > 100 µM in each case. The TGI in the assay with SK-MEL-5 melanoma, in the assay on SF-295 CNS, with HOP-92 NSCLC and in the assay with MALME-3M melanoma was > 100 µM each time.
For the compound `Nc1[nH]nc2nc3ccccc3nc12`, the TGI with MOLT-4 leukemia, with U251 CNS, in the assay on NCI-H522 lung, in the assay with CAKI-1 renal, in the assay on SNB-19 CNS and with A549 NSCLC was > 100 µM in each case. For the same compound, the TGI with SK-MEL-5 melanoma, in the assay with SF-295 CNS, with HOP-92 NSCLC and in the assay on MALME-3M melanoma was > 100 µM in each case.
Regarding `CN(C)c1ccc(/C=C(\NC(=O)c2ccccc2)C2=NC(CCC(=O)O)C(=O)O2)cc1` (stereo not given), the TGI in the assay with MOLT-4 leukemia is > 50 µM; in the assay on U251 CNS, > 50 µM; in the assay on NCI-H522 lung, 49.1 µM; in the assay on CAKI-1 renal it was > 50 µM; in the assay on SNB-19 CNS it was > 50 µM; in the assay with A549 NSCLC it was > 50 µM. The TGI with SK-MEL-5 melanoma, with SF-295 CNS, in the assay on HOP-92 NSCLC and in the assay on MALME-3M melanoma was > 50 µM in each case.
As to `CC(C)=CCC/C(C)=C/COc1c2ccoc2cc2oc(=O)ccc12`, the TGI with MOLT-4 leukemia was 42.3 µM; in the assay with U251 CNS, 55.5 µM; in the assay with NCI-H522 lung, 74.8 µM; in the assay with CAKI-1 renal it was > 100 µM; in the assay with SNB-19 CNS, > 100 µM; with A549 NSCLC, > 100 µM. Also, the TGI in the assay with SK-MEL-5 melanoma is 28.6 µM; in the assay on SF-295 CNS it was 75.3 µM; with HOP-92 NSCLC it was > 100 µM; in the assay with MALME-3M melanoma it was 99.6 µM.
As for `O=C(CCC=C(S(=O)(=O)c1ccccc1)S(=O)(=O)c1ccccc1)c1ccccc1`, the TGI in the assay with MOLT-4 leukemia is > 100 µM; in the assay on U251 CNS, 15.6 µM; with NCI-H522 lung, 9.45 µM; in the assay on CAKI-1 renal, 31.1 µM; in the assay with SNB-19 CNS it was 28.4 µM; in the assay with A549 NSCLC, 49.6 µM. Further, the TGI in the assay on SK-MEL-5 melanoma turned out to be 19.8 µM; in the assay on SF-295 CNS, 60.9 µM; in the assay with HOP-92 NSCLC, 30.6 µM; in the assay with MALME-3M melanoma it was 17.9 µM.
On to `NC(CSSCC(N)=NCC12CC3CC(CC(C3)C1)C2)=NCC12CC3CC(CC(C3)C1)C2`, for which the TGI came out at 16.9 µM with MOLT-4 leukemia; 29 µM in the assay with U251 CNS; 38.6 µM in the assay on NCI-H522 lung; 36.4 µM in the assay on CAKI-1 renal; 41.5 µM with SNB-19 CNS; 31.3 µM in the assay with A549 NSCLC. Further, the TGI in the assay with SK-MEL-5 melanoma worked out at 36.5 µM; with SF-295 CNS, 31.3 µM; with HOP-92 NSCLC, 32.7 µM; with MALME-3M melanoma, 33.6 µM.
Regarding `O=C(c1ccc(Cl)cc1)N(C(=S)N1CCN(c2ccccn2)CC1)C1CCCCC1`, the TGI is 96.5 µM in the assay on MOLT-4 leukemia; > 100 µM in the assay on U251 CNS; > 100 µM in the assay on NCI-H522 lung; > 100 µM with CAKI-1 renal; > 100 µM with SNB-19 CNS; > 100 µM with A549 NSCLC. Besides, the TGI in the assay with SK-MEL-5 melanoma, in the assay with SF-295 CNS, with HOP-92 NSCLC and with MALME-3M melanoma was > 100 µM throughout.
With `C=CCN(CCNS(=O)(=O)c1ccc(C)cc1)S(=O)(=O)c1ccc(C)cc1`, the TGI with MOLT-4 leukemia is > 84.5 µM; in the assay with U251 CNS it was > 100 µM; in the assay with NCI-H522 lung it was > 100 µM; with CAKI-1 renal it was > 100 µM; in the assay with SNB-19 CNS, > 100 µM; in the assay with A549 NSCLC, > 100 µM. The TGI is 12.1 µM in the assay with SK-MEL-5 melanoma, > 100 µM in the assay on SF-295 CNS, > 100 µM in the assay with HOP-92 NSCLC and > 100 µM with MALME-3M melanoma.
For `N=c1c2c(=S)n(-c3ccccc3)c(=S)n(-c3ccccc3)c2nc(SCCN2CCCC2)n1-c1ccccc1`, the TGI in the assay with MOLT-4 leukemia stood at 3.35 µM; in the assay with U251 CNS, 8.36 µM; with NCI-H522 lung it was 3.71 µM; with CAKI-1 renal, 3.11 µM; in the assay with SNB-19 CNS, 31.6 µM; in the assay with A549 NSCLC it was 8.5 µM. Also, the TGI with SK-MEL-5 melanoma stood at 12.1 µM; in the assay with SF-295 CNS, 32.9 µM; with HOP-92 NSCLC, 3.48 µM; with MALME-3M melanoma, 3.87 µM.
